{
  "source": "ChEMBL document CHEMBL4219050",
  "about": "“Inhibit or Evade Multidrug Resistance P-Glycoprotein in Cancer Treatment” (J Med Chem, 2018)",
  "key": {"HCT-116": {"test_system": "HCT-116", "test": "Cytotoxicity against human HCT116 cells", "assay_type": "functional, cell-based"}, "[1]": {"test": "Growth inhibition of human MDA435/LCC6 cells after 72 hrs by SRB assay", "assay_type": "functional", "conditions": "MDA-435/LCC6, 72 h"}, "MES-SA/Dx5": {"test_system": "MES-SA/Dx5", "test": "Growth inhibition of human MES-SA/Dx5 cells after 72 hrs by SRB assay", "assay_type": "functional, cell-based", "conditions": "MES-SA/Dx5, 72 h"}, "Homo sapiens": {"species_on_record": "Homo sapiens", "test": "(§1) Binding affinity to P-gp (unknown origin)"}, "[2]": {"test": "as §1", "set-up": "species or system Homo sapiens"}},
  "data": [
    {"smiles": "C/C(=C\\c1csc(C)n1)[C@@H]1C/C=C\\C/C=C\\[C@H](C)[C@H](O)[C@@H](C)C(=O)C(C)(C)[C@@H](O)CC(=O)O1", "values": [
      {"measurement": "IC50", "setting": "HCT-116", "value": 0.00041, "unit": "µM"}
    ]},
    {"smiles": "CC(=O)O[C@H]1C(=O)[C@@]2(C)[C@H]([C@H](OC(=O)c3ccccc3)[C@]3(O)C[C@H](OC(=O)[C@H](O)[C@@H](NC(=O)c4ccccc4)c4ccccc4)C(C)=C1C3(C)C)[C@]1(OC(C)=O)CO[C@@H]1C[C@@H]2O", "note": "[PACLITAXEL]", "values": [
      {"measurement": "IC50", "setting": "[1]", "value": 0.346, "unit": "µM"},
      {"measurement": "IC50", "setting": "MES-SA/Dx5", "value": 0.21, "unit": "µM"}
    ]},
    {"smiles": "COc1ccc(CCN(C)CCCC(C#N)(c2ccc(OC)c(OC)c2)C(C)C)cc1OC", "note": "(stereo not drawn)", "values": [
      {"measurement": "Activity", "setting": "Homo sapiens", "value": 10, "unit": "µM"}
    ]},
    {"smiles": "O[C@@H](COc1cccc2ncccc12)CN1CCN([C@@H]2c3ccccc3[C@@H]3[C@H](c4ccccc42)C3(F)F)CC1", "note": "[ZOSUQUIDAR]", "values": [
      {"measurement": "EC50", "setting": "[2]", "value": "< 0.1", "unit": "µM"}
    ]},
    {"smiles": "CO[C@H]1C(=O)[C@]2(C)[C@@H](OC)C[C@H]3OC[C@@]3(OC(C)=O)[C@H]2[C@H](OC(=O)c2ccccc2)[C@]2(O)C[C@H](OC(=O)[C@H](O)[C@@H](NC(=O)OC(C)(C)C)c3ccccc3)C(C)=C1C2(C)C", "note": "[CABAZITAXEL]", "values": [
      {"measurement": "IC50", "setting": "MES-SA/Dx5", "value": 0.015, "unit": "µM"}
    ]},
    {"smiles": "COc1cc2c(cc1OC)CN(CCc1ccc(NC(=O)c3cc(OC)c(OC)cc3NC(=O)c3cnc4ccccc4c3)cc1)CC2", "note": "[TARIQUIDAR]", "values": [
      {"measurement": "EC50", "setting": "[2]", "value": "< 0.1", "unit": "µM"}
    ]},
    {"smiles": "C/C(=C\\c1csc(C)n1)[C@@H]1C[C@@H]2O[C@]2(C)CCC[C@H](C)[C@H](O)[C@@H](C)C(=O)C(C)(C)[C@@H](O)CC(=O)N1", "note": "[IXABEPILONE]", "values": [
      {"measurement": "IC50", "setting": "HCT-116", "value": 0.0026, "unit": "µM"}
    ]}
  ]
}
